Results reported in patent US20230226227A1, “PROSTATE SPECIFIC MEMBRANE ANTIGEN (PSMA) LIGANDS AND USES THEREOF” (ADVANCED ACCELERATOR APPLICATIONS (ITALY) SRL, priority 2019, published 2023).
Several values for one entry are separate records, joined by “and”; a condition that tells them apart may be missing. Equal entries are not always repeated. Entries after “also recorded” stand apart in the source; their conditions may differ.

Legend:
[1] = test system: Salmonella typhimurium TA1535, TA1537, TA98, TA100; assay: Bacterial mutation assay, Salmonella typhimurium; assay type: cell-based
Method: (§1) The test item ^175Lu-labelled PSMA-R2 solution was examined for the ability to induce gene mutations in tester strains of Salmonella typhimurium and Escherichia coli, as measured by reversion of auxotrophic strains to prototrophy. The five tester strains TA1535, TA1537, TA98, TA100 and WP2 uvrA were used. Experiments were performed both in the absence and presence of metabolic activation, using liver S9 fraction from rats pre-treated with phenobarbital and 5,6-benzoflavone.
(§2) The test item was used as a solution in sodium acetate buffer and all concentrations in this report are expressed in terms of active ingredient. The test item ^175Lu-labelled PSMA-R2 solution was assayed in the toxicity test at a maximum feasible concentration of 1000 µg/plate and at four lower concentrations spaced at approximately half-log intervals: 316, 100, 31.6 and 10.0 µg/plate.
(§3) On the basis of the results obtained in the preliminary toxicity test, in the Main Assay, using the plate incorporation method, the test item was assayed with all tester strains at the following dose levels: 1000, 500, 250, 125 and 62.5 µg/plate. […] Since a clear negative result was obtained, no further experiment was undertaken.

[2] = Plasma protein binding by ultrafiltration, human plasma; assay type: in vitro ADME; conditions: for fu (%) fraction unbound: human plasma
Method: (§4) Plasma protein binding of PSMA-R2 and ^175Lu-PSMA-R2 has been determined by ultrafiltration method, after incubation of the compounds in human, mouse, rat and minipig plasma at two different concentrations: 1 and 5 µg/mL.

[3] = Plasma protein binding by ultrafiltration, mouse plasma; assay type: in vitro ADME
Method: as §4

[4] = Plasma protein binding by ultrafiltration, rat plasma; assay type: in vitro ADME
Method: as §4

[5] = Repeated dose (2 weeks) toxicity and toxicokinetic study in the minipig; assay type: in vivo, minipigs; conditions: for Half-life: mean value per sex
Method: The tested doses are: 0.058, 0.175 and 0.583 mg/kg/day, that is about 14, 42 and 140 times the PSMA-R2 anticipated human dose.
Each group included 3 male and 3 female minipigs. Groups 1 and 4 included 2 additional animals per gender to be sacrificed after 2 weeks of recovery.
All animals were dosed intravenously once a day for 14 consecutive days.

[6] = Single dose toxicity study in the minipig; assay type: in vivo, Göttingen minipigs
Description: A two-week treatment-free period was allowed after administration.
All animals were administrated intravenously. Plasma samples were collected at Day 1 for toxicokinetic analysis.
Mortality, clinical signs, body weight, food consumption, clinical pathology investigations, ophthalmoscopy, ECG evaluations, and macroscopic observations were indexed at necropsy. Then selected organs were weighed and tissues collected.
In addition, plasma samples were collected on Day 1 for toxicokinetic analysis.

[7] = Plasma protein binding by ultrafiltration, minipig plasma; assay type: in vitro ADME
Method: as §4

[8] = Repeated dose (2 weeks) toxicity and toxicokinetic study in the rat
Method: The purpose of this study was to investigate the toxicity of ^175Lu-PSMA-R2 in rats after daily intravenous administration for 2 weeks and recovery from any treatment related effects during a 2-week recovery period (main groups).
The tested doses were 0.13, 0.39 and 1.29 mg/kg/day, that is about 31, 93 and 310 times the PSMA-R2 anticipated human dose.
Each main treatment group consisted of 10 male and 10 female rats. There were additional 5 male and 5 females included to be sacrificed after 2 weeks of recovery in groups 1 and 4. Two satellite groups (low and mid- dose) for toxicokinetics had 9 male and 9 female animals and one group (high dose) included 12 male and 12 female animals. One additional group (control) comprised 3 male and 3 female animals.
In this study, the toxicity and the toxicokinetic profile of ^175Lu-PSMA-R2 were investigated in Sprague Dawley rats after daily intravenous administration for 2 weeks at the dosages of 0.13, 0.39 and 1.29 mg/kg/day.

[9] = Effects on cardiovascular function of the conscious telemetered minipig; assay type: in vivo; conditions: iv 0.058, 0.175, 0.58 mg/kg
Method: The purpose of this study was to investigate the potential effects of ^175Lu-PSMA-R2 on the cardiovascular functions of the conscious telemetered male minipig following intravenous administration at doses of 0.058, 0.175 and 0.583 mg/kg.
The test item or vehicle was administered intravenously into the external auricular vein at a fixed injection rate of 4 mL/min. The dose was administered to each animal at a dose volume of 1 mL/kg body weight.
At 7-day intervals, each animal received the vehicle or one of the three doses of the test item, following the crossover design described in Table 4.
Systolic, diastolic and mean blood pressure (SBP, DBP and MBP), heart rate (HR), body temperature and Lead II electrocardiogram were recorded continuously, from 1 hour before administration up to 24 h after dosing. Haemodynamic and electrocardiographic data were reported at pre-dose and at 5, 15, 30 minutes and 1, 2, 4, 8 and 24 hours post-dose.

[10] = Behavioral Irwin test after single intravenous administration; assay type: in vivo, rat
Method: The aim of this study was to evaluate the possible effects of ^175Lu-PSMA-R2, at doses of 0.2, 0.6 and 2.0 mg/kg, on general behavior parameters in the rat after intravenous administration, according to the study design in Table 2.
The following parameters were evaluated: mortality, body weight, clinical signs and Irwin test.
The Irwin test was performed at the following intervals after dosing: 5, 15, 30 minutes and 1, 2 and 24 hours.

[11] = test system: Escherichia coli WP2 uvrA; assay: Bacterial mutation assay, Escherichia coli; assay type: cell-based
Method: as §1, §2, §3

[12] = 10.0-1000 µg/plate, absence or presence of S9
[13] = 62.5-1000 µg/plate, absence or presence of S9
[14] = absence or presence of S9 metabolism
[15] = daily iv 0.058, 0.175, 0.583 mg/kg/day for 14 days
[16] = single iv 0.175, 0.58, 1.75 mg/kg

O=C(O)CCC(NC(=O)NC(CCCCN(Cc1ccc(Br)cc1)C(=O)CCCCCNC(=O)CN1CCN(CC(=O)O)CCN(CC(=O)O)CCN(CC(=O)O)CC1)C(=O)O)C(=O)O.[175Lu] (stereo not drawn) [^175Lu-PSMA-R2]
Toxicity and revertant numbers, preliminary toxicity test [1, 12]: Neither toxicity, nor relevant increases in revertant numbers
Toxicity and revertant numbers, Main Assay (plate incorporation) [1, 13]: Neither toxicity, nor relevant increases in revertant numbers
Induction of reverse mutation (conclusion) [1, 14]: does not induce reverse mutation
fu (%) fraction unbound ([2]; 1 µg/mL): 43.9± 5.1%
fu (%) fraction unbound ([2]; 5 µg/mL): 45.0 ± 9.6%
Plasma protein binding, assessment in words ([2]; human, plasma): non-highly bound
fu (%) fraction unbound ([3]; 1 µg/mL): 71.1 ± 4.4%
fu (%) fraction unbound ([3]; 5 µg/mL): 71.0 ± 2.2%
fu (%) fraction unbound ([4]; 1 µg/mL): 37.4 ± 4.9%
fu (%) fraction unbound ([4]; 5 µg/mL): 59.8 ± 4.4%
Half-life ([5]; Day 1, female minipigs): 37.8 min
Half-life ([5]; Day 1, male minipigs): 42.6 min
Accumulation after daily administration ([5]; Day 1 to Day 14): No relevant accumulation
Clinical pathology, gross pathology, terminal body weight, absolute and relative organ weight ([5]; any dose): did not reveal notable or treatment-related changes
Histopathology ([5]; any dose): no histopathology treatment-related modifications
Body weights and food intake [5, 15]: unaffected by the treatment
Ophthalmoscopy and electrocardiographic examination [5, 15]: No treatment-related abnormalities
Physical examination [5, 15]: did not show appreciable changes
NOAEL ([5]; daily iv for 2 weeks): 0.583 mg/kg/day and 0.58 mg/kg/day
Increase in systemic exposure (Cmax and AUC0-tlast) with dose ([5]; minipig, in vivo): approximately dose-proportional
Plasma clearance, dose dependence ([5]; minipig, in vivo): dose-independent
Treatment-related effects in treated groups compared to controls ([5]; once a day for 2 weeks): No evidence of treatment-related effects
Hematology and clinical chemistry ([6]; high dose group (1.75 mg/kg)): Some changes in hematology and clinical chemistry were observed in some animals
Organ weights, macroscopic or microscopic changes [6, 16]: No changes in the organ weights and no treatment-related macroscopic or microscopic changes
Physical signs, ocular findings, electrocardiographic abnormalities [6, 16]: No treatment-related physical signs, ocular findings, nor electrocardiographic abnormalities
Toxicity signs ([6]; single iv 0.175, 0.583 and 1.75 mg/kg): did not induce signs of toxicity; also recorded: No relevant treatment-related toxicity signs
fu (%) fraction unbound ([7]; 1 µg/mL): 41.1 ± 4.2%
fu (%) fraction unbound ([7]; 5 µg/mL): 46.1 ± 12.5%
Accumulation after daily administration ([8]; Day 1 to Day 14): No accumulation
Half-life ([8]; both sexes and all dose levels): 24 to 48 min
NOAEL (No Observed Adverse Effect Level) ([8]; daily iv for 2 weeks): 1.29 mg/kg/day
Toxic / treatment-related effects in treated groups compared to controls ([8]; daily iv for 2 weeks): No evidence of treatment-related effects
Bodyweight and food consumption ([8]; rat, in vivo): unaffected by treatment
Clearance, dose dependence ([8]; rat, in vivo): dose-independent
Clinical pathology examination ([8]; rat, in vivo): No findings of toxicological relevance
Daily clinical observation ([8]; rat, in vivo): No signs of toxicological significance
Dose proportionality of exposure ([8]; rat, in vivo): approximately dose proportional
NOAEL as multiple of the foreseen human dose ([8]; rat, in vivo): 310 times
Necropsy, organ weights or histopathological examination ([8]; rat, in vivo): No evidence of treatment-related effects
Ophthalmoscopy examination ([8]; rat, in vivo): No anomalies related to treatment
Toxic / treatment-related effects in treated groups compared to controls ([8]; rat, in vivo, iv): no toxic effects
Changes in heart rate, arterial blood pressure or electrocardiographic activity [9]: No relevant changes in heart rate, arterial blood pressure or electrocardiographic activity were observed at the tested doses in conscious mini pigs.
Clinical signs ([10]; 6-day observation period): No clinical signs were observed
Mortality ([10]; single iv 0.2, 0.6 and 2.0 mg/kg): No deaths occurred
Effects on behavioral, neurologic or autonomic parameters (Irwin) ([10]; single iv 0.2, 0.6 and 2.0 mg/kg, up to 24 h post-dose): did not induce any effects; also recorded: No effects
Toxicity and revertant numbers, preliminary toxicity test [11, 12]: Neither toxicity, nor relevant increases in revertant numbers
Toxicity and revertant numbers, Main Assay (plate incorporation) [11, 13]: Neither toxicity, nor relevant increases in revertant numbers
Induction of reverse mutation (conclusion) [11, 14]: does not induce reverse mutation
